# Laboratory results from paper PMC9120017, “Inhibition mechanism of the chloride channel TMEM16A by the pore blocker 1PBC” (Nature Communications, 2022).
# Where two headings read alike, the source gives them in different places.
# Biological target: T1, mouse TMEM16A mutant I640A (Mus musculus, UniProt Q8BHY3, I640A)
# T1 construct: expressed in transfected cells; host or cells: HEK293T
# T1 sequence (Q8BHY3 1-960 I640A): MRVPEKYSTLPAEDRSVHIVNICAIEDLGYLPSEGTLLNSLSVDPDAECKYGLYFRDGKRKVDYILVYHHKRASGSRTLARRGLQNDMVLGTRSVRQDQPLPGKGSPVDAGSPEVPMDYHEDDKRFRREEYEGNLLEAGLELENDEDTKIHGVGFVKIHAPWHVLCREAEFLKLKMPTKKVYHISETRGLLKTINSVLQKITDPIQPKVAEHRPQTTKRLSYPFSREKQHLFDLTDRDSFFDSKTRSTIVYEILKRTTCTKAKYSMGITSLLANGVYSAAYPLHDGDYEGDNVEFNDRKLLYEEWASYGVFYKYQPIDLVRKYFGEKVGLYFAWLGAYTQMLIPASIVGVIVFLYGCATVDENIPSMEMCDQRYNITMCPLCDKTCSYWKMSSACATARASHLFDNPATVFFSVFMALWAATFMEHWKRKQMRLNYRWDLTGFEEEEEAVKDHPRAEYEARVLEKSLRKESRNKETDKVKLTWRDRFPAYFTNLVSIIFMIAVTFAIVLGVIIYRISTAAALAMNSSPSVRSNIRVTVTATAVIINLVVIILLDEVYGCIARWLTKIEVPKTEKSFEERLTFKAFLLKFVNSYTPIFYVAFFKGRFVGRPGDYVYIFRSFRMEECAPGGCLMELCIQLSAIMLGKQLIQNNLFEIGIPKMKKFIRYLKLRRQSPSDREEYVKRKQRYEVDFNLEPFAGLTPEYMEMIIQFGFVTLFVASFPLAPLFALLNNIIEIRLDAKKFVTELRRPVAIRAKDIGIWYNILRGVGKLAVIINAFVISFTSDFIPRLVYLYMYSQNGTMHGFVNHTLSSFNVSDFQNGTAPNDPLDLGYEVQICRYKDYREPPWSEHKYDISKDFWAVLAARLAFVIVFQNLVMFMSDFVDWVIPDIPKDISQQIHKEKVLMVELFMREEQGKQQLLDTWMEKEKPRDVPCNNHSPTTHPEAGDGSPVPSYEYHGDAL
# Experiment: Inside-out patch recording of 1PBC block, mutant I640A
# Format: cell-based
# Conditions: for remaining activity at 100 µM: 1PBC conc 100; for remaining activity at 100 µM / remaining activity at 3 µM / remaining activity at 10 µM / remaining activity at 30 µM: read-out: relative current in 1PBC (avr); for remaining activity at 3 µM: 1PBC conc 3; for remaining activity at 10 µM: 1PBC conc 10; for remaining activity at 30 µM: 1PBC conc 30
# Procedure: HEK293T cells (ATCC CRL-1573) were maintained in Dulbecco’s modified Eagle’s medium (DMEM; Sigma-Aldrich) supplemented with 10 U ml^−1 penicillin, 0.1 mg ml^−1 streptomycin (Sigma-Aldrich), 2 mM L-glutamine (Sigma-Aldrich), and 10% FBS (Sigma-Aldrich) in a humidified atmosphere containing 5% CO2 at 37 °C. HEK293S GnTI^− cells (ATCC CRL-3022) were maintained in HyClone HyCell TransFx-H medium (GE Healthcare) supplemented with 10 U ml^−1 penicillin, 0.1 mg ml^−1 streptomycin, 4 mM L-glutamine, 0.15% poloxamer 188 (Sigma-Aldrich), and 1% FBS in an atmosphere containing 5% CO2 at 185 rpm at 37 °C. The ac splice variant of mouse TMEM16A (UniProt ID: Q8BHY3), mouse TMEM16B (UniProt ID: Q8CFW1), or mouse TMEM16F (UniProt ID: Q6P9J9) bearing a 3C cleavage site, a Venus YFP, a Myc tag, and a Streptavidin-binding peptide (SBP) downstream of the open reading frame in a modified pcDNA3.1 vector (Invitrogen) were used as described previously[21],[31]. Mutations were introduced using a modified QuikChange method[58] and were verified by sequencing.
# HEK293T cells were transfected with 3–4 μg DNA per 6 cm Petri dish using the calcium phosphate co-precipitation method and were used within 24–96 h after transfection. Recordings were performed on inside-out patches excised from HEK293T cells expressing the construct of interest. Patch pipettes were pulled from borosilicate glass capillaries (O.D. 1.5 mm, I.D. 0.86 mm, Sutter Instrument) and were fire-polished with a microforge (Narishige) before use. Pipette resistance was typically 3–8 MΩ when filled with the recording solutions detailed below. Seal resistance was typically 4 GΩ or higher. Voltage-clamp recordings were made using Axopatch 200B, Digidata 1550, and Clampex 10.7 (Molecular Devices). Analog signals were filtered with the in-built 4-pole Bessel filter at 10 kHz and were digitized at 20 kHz. Solution exchange was achieved using a gravity-fed system through a theta glass pipette mounted on an ultra-fast piezo-driven stepper (Siskiyou). […] All recordings were performed at 20 °C.
# A symmetrical ionic condition was used throughout. Stock solution with Ca^2+-EGTA contained 150 mM NaCl, 5.99 mM Ca(OH)2, 5 mM EGTA, and 10 mM HEPES at pH 7.40. Stock solution with EGTA contained 150 mM NaCl, 5 mM EGTA, and 10 mM HEPES at pH 7.40. Free Ca^2+ concentrations were adjusted by mixing the stock solutions at the required ratios calculated using the WEBMAXC program (http://web.stanford.edu/~cpatton/webmaxcS.htm). Patch pipettes were filled with the stock solution with Ca^2+-EGTA, which has a free Ca^2+ concentration of 1 mM. 1PBC (ChemBridge) stock was reconstituted in anhydrous DMSO (Sigma-Aldrich) at 100 mM and stored at −20 °C. Working solutions with 1PBC were prepared by serial dilution. Unless otherwise stated, experiments were performed at a saturating Ca^2+ concentration as shown in Supplementary Table 1 and the primary data were corrected for current rundown as described previously[21],[25].
# Concentration-response relations, obtained from the ratio of the I-V plots before and after the application of the blocker, were fitted to the Hill equation,1 I/Imax=1/1+IC50/[blocker]^h where I/Imax is the normalized current responses, IC50 defines the concentration at which inhibition is at its half-maximum, and h is the Hill coefficient.
smiles,measurement,setting,value
N#Cc1c(C(F)(F)F)cc(O)n2c1nc1ccccc12 [1PBC],remaining activity at 100 µM,40 mV,18.8%
same,IC50,"60 mV, 15 µM Ca2+",23.1 µM
same,remaining activity at 3 µM,60 mV,89%
same,remaining activity at 10 µM,60 mV,69.4%
same,remaining activity at 30 µM,60 mV,44.3%
same,remaining activity at 100 µM,60 mV,17.7%
same,log-fold IC50 (change of mutant vs WT),80 mV,1.079
same,IC50,"80 mV, 15 µM Ca2+",22.1 µM
same,remaining activity at 3 µM,80 mV,89.4%
same,remaining activity at 10 µM,80 mV,67.9%
same,remaining activity at 30 µM,80 mV,43%
same,remaining activity at 100 µM,80 mV,17.7%
same,IC50,"100 mV, 15 µM Ca2+",23.1 µM
same,remaining activity at 3 µM,100 mV,91.3%
same,remaining activity at 10 µM,100 mV,69.4%
same,remaining activity at 30 µM,100 mV,43.1%
same,remaining activity at 100 µM,100 mV,18%
same,IC50,"120 mV, 15 µM Ca2+",24.9 µM
same,remaining activity at 3 µM,120 mV,93.7%
same,remaining activity at 10 µM,120 mV,71.5%
same,remaining activity at 30 µM,120 mV,45%
same,remaining activity at 100 µM,120 mV,17.7%
same,IC50,"140 mV, 15 µM Ca2+",28.2 µM
same,remaining activity at 3 µM,140 mV,96.5%
same,remaining activity at 10 µM,140 mV,75.3%
same,remaining activity at 30 µM,140 mV,47.6%
same,remaining activity at 100 µM,140 mV,18.5%
same,IC50,"-20 mV, 15 µM Ca2+",36.1 µM
same,remaining activity at 3 µM,-20 mV,91.2%
same,remaining activity at 10 µM,-20 mV,78.5%
same,remaining activity at 30 µM,-20 mV,55.5%
same,remaining activity at 100 µM,-20 mV,25.8%
same,IC50,"-40 mV, 15 µM Ca2+",41.5 µM
same,remaining activity at 3 µM,-40 mV,91.5%
same,remaining activity at 10 µM,-40 mV,80.9%
same,remaining activity at 30 µM,-40 mV,58.8%
same,remaining activity at 100 µM,-40 mV,28.8%
same,IC50,"-60 mV, 15 µM Ca2+",46.6 µM
same,remaining activity at 3 µM,-60 mV,91.7%
same,remaining activity at 10 µM,-60 mV,83.4%
same,remaining activity at 30 µM,-60 mV,61.1%
same,remaining activity at 100 µM,-60 mV,31.4%
same,IC50,"-80 mV, 15 µM Ca2+",53 µM
same,remaining activity at 3 µM,-80 mV,92.4%
same,remaining activity at 10 µM,-80 mV,84.6%
same,remaining activity at 30 µM,-80 mV,64.1%
same,remaining activity at 100 µM,-80 mV,34.6%
same,IC50,"-100 mV, 15 µM Ca2+",60.2 µM
same,remaining activity at 3 µM,-100 mV,93.4%
same,remaining activity at 10 µM,-100 mV,86.7%
same,remaining activity at 30 µM,-100 mV,66.4%
same,remaining activity at 100 µM,-100 mV,37.8%
same,IC50,"-120 mV, 15 µM Ca2+",66 µM
same,remaining activity at 3 µM,-120 mV,93.4%
same,remaining activity at 10 µM,-120 mV,87.4%
same,remaining activity at 30 µM,-120 mV,68.3%
same,remaining activity at 100 µM,-120 mV,40.2%
same,IC50,"-140 mV, 15 µM Ca2+",73.5 µM
same,remaining activity at 3 µM,-140 mV,93.7%
same,remaining activity at 10 µM,-140 mV,88.3%
same,remaining activity at 30 µM,-140 mV,69.4%
same,remaining activity at 100 µM,-140 mV,44%
same,IC50,"I640A, V 0 mV",31.5 µM
same,IC50,"I640A, V 20 mV",27.5 µM
same,IC50,"I640A, V 40 mV",24.7 µM
same,IC50,"I640A, V 60 mV",23.1 µM
same,IC50,"I640A, V 80 mV",22.1 µM
same,IC50,"I640A, V 100 mV",23.1 µM
same,IC50,"I640A, V 120 mV",24.9 µM
same,IC50,"I640A, V 140 mV",28.2 µM
same,IC50,"I640A, V -20 mV",36.1 µM
same,IC50,"I640A, V -40 mV",41.5 µM
same,IC50,"I640A, V -60 mV",46.6 µM
same,IC50,"I640A, V -80 mV",53 µM
same,IC50,"I640A, V -100 mV",60.2 µM
same,IC50,"I640A, V -120 mV",66 µM
same,IC50,"I640A, V -140 mV",73.5 µM
